Measurements: patent publication US6737383B1, “Herbicidal oxadiazolidines” (priority 1999, dated 2004)

Key:
wheat = assay: Test B pre/postemergence wheat; assay type: in vivo, Triticum aestivum
Procedure, shortened: (§1)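 Herbicidal effect was estimated by eye on a ten-point control scale after plants spent twelve to sixteen days in a greenhouse following soil or foliar treatment. Foliar sprays targeted plants at one to four leaves; all doses were formulated in a non-phytotoxic solvent with surfactant.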

pigweed = assay: Test B pre/postemergence pigweed; assay type: in vivo, Amaranthus retroflexus
Procedure, shortened: as §1

velvetleaf = assay: Test B pre/postemergence velvetleaf; assay type: in vivo, Abutilon theophrasti
Procedure, shortened: as §1

giant foxtail = assay: Test B pre/postemergence giant foxtail; assay type: in vivo, Setaria faberii
Procedure, shortened: as §1

wild oat = assay: Test B pre/postemergence wild oat; assay type: in vivo, Avena fatua
Procedure, shortened: as §1

soybean = assay: Test B pre/postemergence soybean; assay type: in vivo, Glycine max
Procedure, shortened: as §1

duck salad = assay: Test B flood test duck salad; assay type: in vivo, Heteranthera limosa
Procedure, shortened: (§2)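 Flood test on plants grown to the 2-leaf stage; treated plants kept in greenhouse twelve to sixteen days, then visually rated against controls on a 0 (no effect) to 10 (complete control) scale.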

blackgrass = assay: Test B pre/postemergence blackgrass; assay type: in vivo, Alopecurus myosuroides
Procedure, shortened: as §1

bamyardgrass = assay: Test B flood test barnyardgrass; assay type: in vivo, Echinochloa crus-galli
Procedure, shortened: as §2

rice = assay: Test B flood test rice; assay type: in vivo, Oryza sativa
Procedure, shortened: as §2

rape = assay: Test B pre/postemergence rape; assay type: in vivo, Brassica napus
Procedure, shortened: as §1

bedstraw = assay: Test B pre/postemergence bedstraw; assay type: in vivo, Galium aparine
Procedure, shortened: as §1

purple nutsedge = assay: Test B pre/postemergence purple nutsedge; assay type: in vivo, Cyperus rotundus
Procedure, shortened: as §1

smallflower flatsedge = assay: Test B flood test smallflower flatsedge; assay type: in vivo, Cyperus difformis
Procedure, shortened: as §2

sugar beet = assay: Test B pre/postemergence sugar beet; assay type: in vivo, Beta vulgaris
Procedure, shortened: as §1

morningglory = assay: Test B pre/postemergence morningglory; assay type: in vivo, Ipomoea hederacea
Procedure, shortened: as §1

[1] = Preemergence, Rate 62 g/ha, scale of 0 to 10 where 0 is no effect and 10 is complete control
[2] = Preemergence, Rate 250 g/ha, scale of 0 to 10 where 0 is no effect and 10 is complete control
[3] = Preemergence, Rate 500 g/ha, scale of 0 to 10 where 0 is no effect and 10 is complete control
[4] = Rate 62 g/ha, Postemergence, scale 0 to 10 (0 no effect, 10 complete control)
[5] = Rate 125 g/ha, Postemergence, scale of 0 to 10 where 0 is no effect and 10 is complete control
[6] = Rate 250 g/ha, Postemergence, scale of 0 to 10 where 0 is no effect and 10 is complete control
[7] = Rate 62 g/ha, headed Pre-emergence (flood test species), scale 0 to 10 (0 no effect, 10 complete control)
[8] = Rate 125 g/ha, Pre-emergence, flood test species, scale 0 to 10 where 0 is no effect and 10 is complete control
[9] = Rate 250 g/ha, Pre-emergence, flood-test species, scale 0 to 10, 0 is no effect, 10 is complete control
[10] = Rate 500 g/ha, Pre-emergence, flood test species, scale 0 to 10 (0 no effect, 10 complete control)

CSCCn1c(=O)on(C(=O)N(c2ccc(F)cc2)C(C)C)c1=O [Compound 314]
Wheat plant response rating (wheat; [1]): 0
Wheat plant response rating (0 to 10 scale) (wheat; Preemergence, Rate 125 g/ha): 0
Wheat plant response rating (wheat; [2]): 0
Wheat plant response rating (wheat; [3]): 3
Wheat plant response rating (wheat; [4]): 0
Wheat plant response rating (wheat; [5]): 0
Plant response rating, Wheat (wheat; [6]): 3
Redroot pigweed plant response rating (pigweed; [1]): 0
Redroot pigweed plant response rating (0 to 10 scale) (pigweed; Preemergence, Rate 125 g/ha): 2
Redroot pigweed plant response rating (pigweed; [2]): 2
Redroot pigweed plant response rating (pigweed; [3]): 9
Redroot pigweed plant response rating (pigweed; [4]): 0
Redroot pigweed plant response rating (pigweed; [5]): 0
Plant response rating, Redroot pigweed (pigweed; [6]): 0
Velvetleaf plant response rating (velvetleaf; [1]): 0
Velvetleaf plant response rating (0 to 10 scale) (velvetleaf; Preemergence, Rate 125 g/ha): 0
Velvetleaf plant response rating (velvetleaf; [2]): 3
Velvetleaf plant response rating (velvetleaf; [3]): 5
Velvetleaf plant response rating (velvetleaf; [4]): 0
Velvetleaf plant response rating (velvetleaf; [5]): 0
Plant response rating, Velvetleaf (velvetleaf; [6]): 0
Giant foxtail plant response rating (giant foxtail; [1]): 3
Giant foxtail plant response rating (0 to 10 scale) (giant foxtail; Preemergence, Rate 125 g/ha): 6
Giant foxtail plant response rating (giant foxtail; [2]): 7
Giant foxtail plant response rating (giant foxtail; [3]): 10
Giant foxtail plant response rating (giant foxtail; [4]): 0
Giant foxtail plant response rating (giant foxtail; [5]): 0
Plant response rating, Giant foxtail (giant foxtail; [6]): 3
Wild oats plant response rating (wild oat; [1]): 0
Wild oats plant response rating (0 to 10 scale) (wild oat; Preemergence, Rate 125 g/ha): 2
Wild oats plant response rating (wild oat; [2]): 2
Wild oats plant response rating (wild oat; [3]): 3
Wild oats plant response rating (wild oat; [4]): 0
Wild oats plant response rating (wild oat; [5]): 0
Plant response rating, Wild oats (wild oat; [6]): 2
Soybean plant response rating (soybean; [1]): 0
Soybean plant response rating (0 to 10 scale) (soybean; Preemergence, Rate 125 g/ha): 0
Soybean plant response rating (soybean; [2]): 0
Soybean plant response rating (soybean; [3]): 0
Soybean plant response rating (soybean; [4]): 2
Soybean plant response rating (soybean; [5]): 3
Plant response rating, Soybean (soybean; [6]): 4
Ducksalad plant response rating (duck salad; [7]): 0
Ducksalad plant response rating (duck salad; [8]): 0
Ducksalad plant response rating (duck salad; [9]): 0
Ducksalad plant response rating (duck salad; [10]): 0
Blackgrass plant response rating (blackgrass; [1]): 5
Blackgrass plant response rating (0 to 10 scale) (blackgrass; Preemergence, Rate 125 g/ha): 7
Blackgrass plant response rating (blackgrass; [2]): 10
Blackgrass plant response rating (blackgrass; [3]): 10
Blackgrass plant response rating (blackgrass; [4]): 2
Blackgrass plant response rating (blackgrass; [5]): 4
Plant response rating, Blackgrass (blackgrass; [6]): 5
Blackgrass plant response rating (blackgrass; Rate 500 g/ha, Postemergence, scale 0 to 10, 0 no effect, 10 complete control): 5
Barnyardgrass plant response rating (bamyardgrass; [7]): 0
Barnyardgrass plant response rating (bamyardgrass; [8]): 0
Barnyardgrass plant response rating (bamyardgrass; [9]): 0
Barnyardgrass plant response rating (bamyardgrass; [10]): 0
Rice plant response rating (rice; [7]): 0
Rice plant response rating (rice; [8]): 0
Rice plant response rating (rice; [9]): 0
Rice plant response rating (rice; [10]): 0
Rape plant response rating (rape; [1]): 0
Rape plant response rating (rape; [2]): 3
Rape plant response rating (rape; [3]): 7
Rape plant response rating (rape; [4]): 0
Rape plant response rating (rape; [5]): 0
Plant response rating, Rape (rape; [6]): 0
Bedstraw plant response rating (bedstraw; [1]): 0
Bedstraw plant response rating (0 to 10 scale) (bedstraw; Preemergence, Rate 125 g/ha): 0
Bedstraw plant response rating (bedstraw; [2]): 0
Bedstraw plant response rating (bedstraw; [3]): 3
Bedstraw plant response rating (bedstraw; [4]): 2
Bedstraw plant response rating (bedstraw; [5]): 4
Nutsedge plant response rating (purple nutsedge; [1]): 0
Nutsedge plant response rating (purple nutsedge; [3]): 0
Nutsedge plant response rating (purple nutsedge; [4]): 0
Nutsedge plant response rating (purple nutsedge; [5]): 0
Plant response rating, Nutsedge (purple nutsedge; [6]): 0
S. Flatsedge plant response rating (smallflower flatsedge; [7]): 0
S. Flatsedge plant response rating (smallflower flatsedge; [8]): 0
S. Flatsedge plant response rating (smallflower flatsedge; [9]): 0
S. Flatsedge plant response rating (smallflower flatsedge; [10]): 0
Sugarbeets plant response rating (sugar beet; [1]): 0
Sugarbeets plant response rating (0 to 10 scale) (sugar beet; Preemergence, Rate 125 g/ha): 2
Sugarbeets plant response rating (sugar beet; [2]): 2
Sugarbeets plant response rating (sugar beet; [3]): 6
Sugarbeets plant response rating (sugar beet; [4]): 0
Sugarbeets plant response rating (sugar beet; [5]): 0
Plant response rating, Sugarbeets (sugar beet; [6]): 0
Morningglory plant response rating (morningglory; [1]): 0
Morningglory plant response rating (0 to 10 scale) (morningglory; Preemergence, Rate 125 g/ha): 0
Morningglory plant response rating (morningglory; [2]): 0
Morningglory plant response rating (morningglory; [3]): 0
Morningglory plant response rating (morningglory; [4]): 2
Morningglory plant response rating (morningglory; [5]): 2
Plant response rating, Morningglory (morningglory; [6]): 3
